In the assay the test system is IGROV1 CR cells. As to the kind of experiment: Synergy with cisplatin, SRB cell viability, combination index. In kind it is cell-based. The method, then:
Cell viability was measured by SRB assay. […] Data were represented as mean ± SD (n = 3). (B) Colony formation assay in cells treated as indicated. […] (D) Growth curves of xenograft tumors are shown in (C). Data are represented as means ± SEM, n = 6 mice/group. **p < 0.01. […] (F) IGROV1 CR xenograft tumor growth curve by indicated treatments. Data are represented as means ± SD, n = 6 tumors/group. **p < 0.01. (G) Immunohistochemistry (IHC) staining against pSTAT3 antibodies of tumor samples from four groups of mice (magnification, 200x) (Upper). […]
represented as mean ± SD (n = 3) . ( B) Body we i ght changes of mice in each grou p treated […]
[…] Data are rep res e nted as mea ns ± SD, n= 6 tu mors /g roup . (C) H&E staining of paraffin‐embedded 3‐μm‐th ick tissue sec tions of the tumor, heart, lung , liver and kidney from 4 groups of mice (m agn i f ication , ×200) treated in B.
Cisplatin: sl ightl y […]
means ± SD, n=6 tumors/group . […]
1. Antibodies and re a ge nt s […]
[…] Momordin Ic ( A14773; Adooq Biosc ience) was dissolved in DMSO. Ursolic acid (A10961; Adooq Bioscience) wa s dissolved in DMSO. […]
Cell viability was detected using Sulforhodamine B (SRB) assay as described previously (3).
Absorbance at 51 0 nm was detected using a SpectraMax Re a d e r (Molecular Devices) and an alyzed with SoftMax Analys is Software (Molecular Devices). […]

The values below come from publication PMC8710297, “Identification of potent SENP1 inhibitors that inactivate SENP1/JAK2/STAT signaling pathway and overcome platinum drug resistance in ovarian cancer” (Clinical and Translational Medicine, 2021).

For the molecule `C[C@H]1[C@H](C)CC[C@]2(C(=O)NCC(=O)N(C)CCO)CC[C@]3(C)C(=CC[C@@H]4[C@@]5(C)CC[C@H](O)C(C)(C)[C@@H]5CC[C@]43C)[C@H]12` [UAMMC9], the “synergy with cisplatin to inhibit IGROV1 CR cells” value was “great synergy”. As for `C[C@H]1[C@H](C)CC[C@]2(C(=O)O)CC[C@]3(C)C(=CC[C@@H]4[C@@]5(C)CC[C@H](O)C(C)(C)[C@@H]5CC[C@]43C)[C@H]12` [UA, ursolic acid, reference compound], the “synergy with cisplatin to inhibit IGROV1 CR cells” value is “great synergy”.
